Test results reported in PubChem BioAssay AID256 (DTP/NCI, 2004).
Inconclusive results and toxic doses are left out.

Tested on: CD2F1 mice, L1210 leukemia ip, survival T/C
Experiment: NCI In Vivo Anticancer Drug Screen. Data for tumor model L1210 Leukemia (intraperitoneal) in CD2F1 (CDF1) mice
Conditions: higher = longer survival
How it was run: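 Read-out first: treated-group measurement over vehicle-control measurement, expressed as a ratio. Animals bore a transplanted tumor line and were dosed with compound or vehicle.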

For `COc1cc([C@@H]2c3cc4c(cc3[C@@H](OC3OC5COC(C)OC5C(O)C3O)[C@H]3COC(=O)[C@H]23)OCO4)cc(OC)c1O` (stereo partly drawn), the T/C (endpoint: mean survival time, dose: 0.5 mg/kg/injection, schedule: Q03HX024 (ip), vehicle: saline) was 165 % of control, the T/C (endpoint: mean survival time, dose: 1.0 mg/kg/injection, schedule: Q03HX024 (ip), vehicle: saline) was 360 % of control and the T/C (endpoint: mean survival time, dose: 2.0 mg/kg/injection, schedule: Q01DX009 (ip), vehicle: saline) was 151 % of control. The T/C (endpoint: mean survival time, dose: 2.0 mg/kg/injection, schedule: Q03HX024 (ip), vehicle: saline) was 124 % of control, the T/C (endpoint: mean survival time, dose: 4.0 mg/kg/injection, schedule: Q01DX009 (ip), vehicle: saline) was 246 % of control and the T/C (endpoint: mean survival time, dose: 8.0 mg/kg/injection, schedule: Q01DX009 (ip), vehicle: saline) was 111 % of control. The T/C (endpoint: mean survival time, dose: 8.0 mg/kg/injection, schedule: Q04DX003 (ip), vehicle: saline) was 181 % of control, the T/C (endpoint: mean survival time, dose: 16.0 mg/kg/injection, schedule: Q01DX009 (ip), vehicle: saline) was 87 % of control and the T/C (endpoint: mean survival time, dose: 16.0 mg/kg/injection, schedule: Q04DX003 (ip), vehicle: saline) was 289 % of control. For the same molecule, the T/C (endpoint: mean survival time, dose: 32.0 mg/kg/injection, schedule: Q04DX003 (ip), vehicle: saline) was 542 % of control, the T/C (endpoint: median survival time, dose: 1.0 mg/kg/injection, schedule: Q03HX008 (ip), vehicle: other) was 162 % of control and the T/C (endpoint: median survival time, dose: 1.0 mg/kg/injection, schedule: Q03HX016 (ip), vehicle: other) was 175 % of control. The T/C (endpoint: median survival time, dose: 1.0 mg/kg/injection, schedule: Q03HX024 (ip), vehicle: other) was 218 % of control, the T/C (endpoint: median survival time, dose: 2.0 mg/kg/injection, schedule: Q01DX009 (ip), vehicle: other) was 175 % of control and the T/C (endpoint: median survival time, dose: 2.0 mg/kg/injection, schedule: Q01DX009 (ip), vehicle: saline) was 152 % of control. The T/C (endpoint: median survival time, dose: 2.0 mg/kg/injection, schedule: Q01DX009 (sc), vehicle: other) was 150 % of control, the T/C (endpoint: median survival time, dose: 2.0 mg/kg/injection, schedule: Q03HX008 (ip), vehicle: other) was 175 % of control and the T/C (endpoint: median survival time, dose: 2.0 mg/kg/injection, schedule: Q03HX016 (ip), vehicle: other) was 212 % of control. For the same molecule, the T/C (endpoint: median survival time, dose: 2.0 mg/kg/injection, schedule: Q03HX024 (ip), vehicle: other) was 206 % of control, the T/C (endpoint: median survival time, dose: 4.0 mg/kg/injection, schedule: Q01DX009 (ip), vehicle: other) was 218 % of control and the T/C (endpoint: median survival time, dose: 4.0 mg/kg/injection, schedule: Q01DX009 (ip), vehicle: saline) was 195 % of control. For the same molecule, the T/C (endpoint: median survival time, dose: 4.0 mg/kg/injection, schedule: Q01DX009 (oral), vehicle: Klucel (hydroxypropylcellulose) (HPC)) was 105 % of control, the T/C (endpoint: median survival time, dose: 4.0 mg/kg/injection, schedule: Q01DX009 (sc), vehicle: other) was 168 % of control and the T/C (endpoint: median survival time, dose: 4.0 mg/kg/injection, schedule: Q03HX008 (ip), vehicle: other) was 181 % of control. The T/C (endpoint: median survival time, dose: 4.0 mg/kg/injection, schedule: Q03HX008 (oral), vehicle: Klucel (hydroxypropylcellulose) (HPC)) was 111 % of control, the T/C (endpoint: median survival time, dose: 4.0 mg/kg/injection, schedule: Q03HX016 (ip), vehicle: other) was 187 % of control and the T/C (endpoint: median survival time, dose: 4.0 mg/kg/injection, schedule: Q03HX016 (oral), vehicle: Klucel (hydroxypropylcellulose) (HPC)) was 100 % of control. For the same molecule, the T/C (endpoint: median survival time, dose: 4.0 mg/kg/injection, schedule: Q03HX024 (ip), vehicle: other) was 118 % of control, the T/C (endpoint: median survival time, dose: 4.0 mg/kg/injection, schedule: Q03HX024 (oral), vehicle: Klucel (hydroxypropylcellulose) (HPC)) was 88 % of control and the T/C (endpoint: median survival time, dose: 8.0 mg/kg/injection, schedule: Q01DX001 (ip), vehicle: other) was 162 % of control. The T/C (endpoint: median survival time, dose: 8.0 mg/kg/injection, schedule: Q01DX001 (sc), vehicle: other) was 112 % of control, the T/C (endpoint: median survival time, dose: 8.0 mg/kg/injection, schedule: Q01DX009 (ip), vehicle: saline) was 220 % of control and the T/C (endpoint: median survival time, dose: 8.0 mg/kg/injection, schedule: Q01DX009 (oral), vehicle: Klucel (hydroxypropylcellulose) (HPC)) was 116 % of control. For the same molecule, the T/C (endpoint: median survival time, dose: 8.0 mg/kg/injection, schedule: Q01DX009 (sc), vehicle: other) was 118 % of control, the T/C (endpoint: median survival time, dose: 8.0 mg/kg/injection, schedule: Q03HX008 (ip), vehicle: other) was 87 % of control and the T/C (endpoint: median survival time, dose: 8.0 mg/kg/injection, schedule: Q03HX008 (oral), vehicle: Klucel (hydroxypropylcellulose) (HPC)) was 122 % of control. The T/C (endpoint: median survival time, dose: 8.0 mg/kg/injection, schedule: Q03HX016 (oral), vehicle: Klucel (hydroxypropylcellulose) (HPC)) was 100 % of control, the T/C (endpoint: median survival time, dose: 8.0 mg/kg/injection, schedule: Q03HX024 (ip), vehicle: other) was 112 % of control and the T/C (endpoint: median survival time, dose: 8.0 mg/kg/injection, schedule: Q03HX024 (oral), vehicle: Klucel (hydroxypropylcellulose) (HPC)) was 88 % of control. The T/C (endpoint: median survival time, dose: 8.0 mg/kg/injection, schedule: Q04DX003 (ip), vehicle: other) was 193 % of control, the T/C (endpoint: median survival time, dose: 8.0 mg/kg/injection, schedule: Q08DX002 (ip), vehicle: other) was 168 % of control and the T/C (endpoint: median survival time, dose: 16.0 mg/kg/injection, schedule: Q01DX001 (ip), vehicle: other) was 162 % of control. For the same molecule, the T/C (endpoint: median survival time, dose: 16.0 mg/kg/injection, schedule: Q01DX009 (ip), vehicle: other) was 100 % of control, the T/C (endpoint: median survival time, dose: 16.0 mg/kg/injection, schedule: Q01DX009 (oral), vehicle: Klucel (hydroxypropylcellulose) (HPC)) was 122 % of control and the T/C (endpoint: median survival time, dose: 16.0 mg/kg/injection, schedule: Q01DX009 (sc), vehicle: other) was 93 % of control. For the same molecule, the T/C (endpoint: median survival time, dose: 16.0 mg/kg/injection, schedule: Q03HX008 (oral), vehicle: Klucel (hydroxypropylcellulose) (HPC)) was 111 % of control, the T/C (endpoint: median survival time, dose: 16.0 mg/kg/injection, schedule: Q03HX016 (oral), vehicle: Klucel (hydroxypropylcellulose) (HPC)) was 111 % of control and the T/C (endpoint: median survival time, dose: 16.0 mg/kg/injection, schedule: Q03HX024 (oral), vehicle: Klucel (hydroxypropylcellulose) (HPC)) was 94 % of control.
